This is an account of results in publication PMC9227536, “Prediction of Pharmacokinetics of IDP-73152 in Humans Using Physiologically-Based Pharmacokinetics” (Pharmaceutics, 2022).

A short description of data set [1]: Blood partitioning (LC-MS/MS-based depletion method), dog. The class given is in vitro ADME. To be noted: whole blood, dogs blood, 0.3, 1, 3 μM, read-out: BP (blood-to-plasma concentration ratio). The protocol:
In this study, the partitioning of IDP-73152 in blood samples obtained from mice, rats, dogs, and humans was determined using the LC-MS/MS-based depletion method with slight modifications. DP-73152 was added to an aliquot (1 mL) of blank blood or plasma at a final concentration of 0.3, 1, or 3 μM. The mixture was incubated at 37 °C in a water bath for 60 min. After the incubation, the plasma was separated by centrifugation of the blood samples for 5 min at 10,000× g/4 °C and stored at -80 °C until analysis. The blood-to-plasma concentration ratio (BP) was calculated using the equation:(3) BP=[…], where […] is the concentration of the compound at the corresponding blood concentration in the plasma, and CPL is the concentration from the plasma sample separated from the incubated blood.

The nature of data set [2]: PBPK model prediction, mice. The text has this: In this study, the PBPK model involving ten tissues (i.e., adipose tissue, brain, heart, kidney, liver, lung, muscle, skin, spleen, and testis (Figure 2; see Appendix A for detailed mathematical descriptions)) was considered to be applicable for the description of IDP-73152 PK in rats, mice, dogs, and humans. Physiological variables were obtained from the literature; they are summarized in Supplementary Table S1.
For the estimation of the volume of the distribution of IDP-73512 in rats, the steady-state volume of distribution (Vss) was calculated using the following equation [30]:(10) Vss=VP+Vrbc×EP+∑VT,i×KP,ss,i, where Vp, Vrbc, and VT,i are the volumes of plasma, red blood cells, and tissues, respectively. The erythrocyte-to-plasma partition coefficient (EP), is calculated by EP=1+(BP−1)/Hematocrit . The KP,ss for each tissue obtained from Equation (8) was applied for Equation (10). For the case of non-eliminating organs, the KP,ss was regarded as the tissue-to-plasma partition coefficient (KP) in PBPK equations (Appendix A). For the case of the liver—i.e., the eliminating organ—the KP,ss (KP,ss,LI) had to be corrected to account for the equilibrium being altered by the elimination. Thus, a PBPK-operative KP for liver (KP,LI) was calculated using the following equation [31]:(11) KP,LI=KP,ss,LI/(1−ER), where ER is the hepatic extraction ratio of the compound (i.e., CLh/(QLI·BP)). In this study, a compartmental absorption and transit (CAT) model consisting of stomach and five intestinal segments was considered for the description of the intestinal absorption kinetics of IDP-73152 in animals and humans. We assumed that the initial compartment denoted the stomach (Equation (12)), and the subsequent three compartments represented the small intestine and two additional compartments for the large intestine (i.e., a total of six compartments, with absorption occurring in the five intestinal compartments) (Equation (13)). The differential equations describing the rate of drug absorption and transit in the gastrointestinal tract can be written as:
For the intestine, viz. i = 1~5:(13) dMi/dt=Kt,i−1×Mi−1−(Kt,i+ka,i)×Mi, where Ms is the amount of drug in the stomach; Mi is the amount of drug in the i-th intestinal segment; Ks, Kt,i, and ka,i are the rate constants of gastric emptying, intestinal transit, and the segmental absorption rate, respectively. In Equation (13) at i = 1, Kt,0 and M0 represent Ks and Ms, respectively. […] The absorption rate constant in the intestinal segments in humans, ka,i,human, was assumed to be identical along the segments and calculated as follows: first, Peff was empirically estimated from the Caco-2 cell permeability (Papp):(14) LogPeff=0.4926×LogPapp−0.1454 […]

Turning to `CC(C)(C)[C@H](NC(=O)[C@H](CC1CCCC1)CN(O)C=O)C(=O)N1CCC(NCc2cc(F)c(F)cc2F)CC1` [IDP-73152], in data set [1], the blood plasma ratio at 60 min was 1.45 ± 0.11. Moreover, the AUC ratio in data set [2] (intravenous 10 mg/kg) is 1.15. Moreover, the “Cmax ratio without the scaling (SF)” value in data set [2] (oral) is reported as 1.72. Further, in data set [2] (oral 20 mg/kg), the AUC ratio is 0.880 and the Cmax ratio was 0.906.
